# Measured values as given in paper PMC7617978, “Anti-trypanosomal quinazolines targeting lysyl-tRNA synthetases show partial efficacy in a mouse model of acute Chagas disease” (Science translational medicine, 2025).
# Values joined by “and” are separate entries in the source; they are usually repeats but may differ in a detail not shown here. Equal values may be shown once. Read-outs that look alike come from different tables or passages of the source.
# Key:
# [1] = system: T. cruzi CL Brener strain; assay: Bioluminescent mouse model of acute T. cruzi infection; type: in vivo, BALB/c mice; details: 100 mg/kg QD oral, 5 days, in words
# Protocol: Female BALB/c mice (aged 6-7 weeks), purchased from Charles River (UK), were maintained under specific pathogen-free conditions in individually ventilated cages, with a 12 h light/dark cycle. They had access to food and water ad libitum. Mice were infected by intraperitoneal injection (i.p) of 1x10^3 bloodstream trypomastigotes derived from CB17 SCID mouse blood.
# Compounds were prepared in 5% (v/v) dimethyl sulfoxide /95% HPMC suspension vehicle (0.5% (w/v) hydroxypropyl methylcellulose, 0.5% (v/v) benzyl alcohol, 0.4% (v/v) Tween 80 in Milli-Q water). Mice were treated as outlined in Fig. 5, with compounds administered by oral gavage. At different days after infection, mice were injected with d-luciferin (150 mg/kg) i.p., anaesthetized using 2.5% (v/v) gaseous isoflurane and imaged using an IVIS Spectrum (Revvity, Hopkinton, MA, USA) 5-10 min later. To estimate parasite burden, mice ventral and dorsal regions of interest were drawn using Living Image 4.7.3 to quantify bioluminescence expressed as total flux (photons/second; p/s). Regions of interest data from infected and not-infected mice were used as controls. Exposure times varied between 30 sec and 5 min, depending on the signal intensity.
# [2] = target: Trypanosoma cruzi lysyl-tRNA synthetase 1 (TcKRS1), recombinant, residues 54-580 (Trypanosoma cruzi); assay: SEC; size exclusion chromatography as the last step of purification of recombinant TcKRS1 (tag cleaved); running buffer not stated
# [3] = system: L. donovani (LdBOB) promastigote; assay: Drug sensitivity assay, L. donovani promastigotes; type: cell-based; details: promastigote; for EC50: read-out: EC50
# [4] = system: T. cruzi (Sylvio X10/7A1 strain) epimastigote; assay: microbe, parasite or virus in culture; type: cell-based; details: epimastigote; for EC50: read-out: EC50
# T. b. brucei BSF = assay: Drug sensitivity assay, T. b. brucei bloodstream forms; type: cell-based; details: BSF; for EC50: read-out: EC50
molecule,measurement,setting,value
"O=C(Cn1ccnc1[N+](=O)[O-])NCc1ccccc1 [benznidazole, reference compound]",parasite burden after treatment,[1],reduced close to the limit of detection
"Trypanosoma cruzi lysyl-tRNA synthetase 1 (TcKRS1), recombinant, residues 54-580 (enzyme)",stoichiometry N,[2],2
"O=C(NCC1(O)CCC(F)(F)CC1)c1cc(=O)c2cc(F)ccc2o1 [DDD01510706, reference compound]",Fold-shift (relative to WT),[3]; KRS1 OE,11 fold
same,EC50,[3]; KRS1 OE,8 ± 0.5 µM
same,Fold-shift (relative to WT),[3]; KRS1 S324L,12 fold
same,EC50,[3]; WT,0.7 ± 0.01 µM
same,Fold-shift (relative to WT),[4]; KRS1 OE,9 fold
same,EC50,[4]; KRS1 OE,13 ± 0.4 µM
same,Fold-shift (relative to WT),[4]; KRS1 S319L,25 fold
same,EC50,[4]; KRS1 S319L,36 ± 4 µM
same,EC50,[4]; WT,1.4 ± 0.04 µM
same,Fold-shift (relative to WT),T. b. brucei BSF; KRS1 OE,5 fold and ~ 5 fold
same,EC50,T. b. brucei BSF; KRS1 OE,3 ± 0.1 µM
same,EC50,T. b. brucei BSF; KRS1 S323L,33 ± 1 µM
same,Fold-shift (relative to WT),T. b. brucei BSF; KRS1 serine-to-leucine mutant (S323L; printed S319L in Table S1),53 fold
same,EC50,T. b. brucei BSF; WT,0.6 ± 0.01 µM
